According to patent US20220135678A1, “METHODS AND COMPOSITIONS TO IMPROVE THE SAFETY AND EFFICACY OF CELLULAR THERAPIES” (University of Southern California, priority 2019, published 2022):

Key:
[1] = test system: Molm14 AML leukemia cells; assay: AMR-dTAG or AMR-ShieldTag HSPC transplanted into NSG mice with Molm14 cells, CD33 CAR-T; assay type: in vivo
Excerpt: (§1) The transduced cells are also transplanted into NSG mice along with Molm14 AML leukemia cells.
as §1

[2] = test system: CD33 on hematopoietic stem cells and progenitor cells; assay: HSPC expressing AMR-dTAG or AMR-ShieldTag targeting CD33, in vitro; assay type: cell-based
[3] = test system: CD19 on RAJI (CD19+) cells; assay: CD19 surface expression on transduced RAJI cells, flow cytometry with PE-conjugated FMC63 antibody (antigen masking); assay type: cell-based
Excerpt: A panel of CARs targeting CD19 were generated using antigen binding domains derived from FMC63 (SEQ ID NO: 205), hu-mROO5-1 (SEQ ID NO: 211) and CD19-MM (SEQ ID NO: 209) scFVs respectively. […] The constructs also co-expressed a puromycin resistance gene (PAC). The lentiviral vectors encoding the different CAR constructs were used to infect RAJI (CD19+) cells. The cells were selected with puromycin. Flow cytometry with PE-conjugated FMC63 antibody was used to detect the expression of CD19 on the surface of the CAR-expressing cells.
In another exemplary experiment, the experiment is repeated with lentiviral vectors encoding FMC63- or hum-mROO5-1-based cTCR, Ab-TCR, TFPαβ and TFPγδ.
RAJI cells were infected with the following lentiviral vectors encoding antigen masking receptors targeting CD19 and carrying protein degradation motifs FKBP12. […] RAJI cells were selected with puromycin and examined for CD19 expression by cell surface staining with FMC63 antibody. […] Subsequently, the cells were treated with dTAG-13 (100 nM) for 24-72 h to induce degradation of the AMR.

RAJI cells = assay: Killing of AMR-expressing RAJI cells by CD19-CAR-T cells or Blinatumomab; assay type: cell-based; settings: exposure to dTAG-13
Experimental: T cells mediated induction of lysis of target cells was assayed by increase of luciferase activity as measured by BioTek synergy plate reader by directly injecting 0.5×CTZ assay buffer containing native coeloentrazine (Nanaolight).

CD19 (on RAJI cells) [4] = molecular target: CD19 (on RAJI cells) (UniProt P15391); assay: cell surface staining of control RAJI cells with FMC63 antibody, flow cytometry
[5] = test system: NALM6 (B cell acute lymphocytic leukemia cells); assay: Infection of NALM6 cells by lentivirus encoding a non-FMC63 CD19 CAR; assay type: cell-based; settings: CAR scFV derived from an antibody other than FMC63
Experimental: The experiment in the preceding example is repeated using a lentiviral vector encoding a CD19 CAR (SEQ ID NO: 11920) comprising a scFV derived from an antibody other than FMC63 as its antigen-binding domain. The CAR is cloned in the pCCLc-MNDU3-WPRE lentiviral vector (SEQ ID NO: 3) and the resulting vector is packaged using VSVG as described in the preceding example. […] In contrast, incubation with Rituximab, a CD20 antibody, had no effect.

[6] = Patient with cytokine release syndrome and neurological complications after haploidentical stem cell transplant; assay type: in vivo, human
Experimental: A patient with myelofibroris receives haploidentical peripheral blood stem cell transplant using their child as a donor. The patient receives reduced intensity conditioning with Melphalan (100 mg/m2 on day −6), Fludarabine (25 mg/m2×4 on days −5 to −2) and total body irradiation (TBI) of 200 cGy on day −1. Following infusion of haploidentical stem cells on Day 0, the patient receives post-transplant Cyclophosphamide 50 mg/kg×2 on days+3 and +4 and intravenous hydration with normal saline at rate of 250 ml/h for 24 hours after the completion of cyclophosphamide.

CD19 (on RAJI cells) [7] = molecular target: CD19 (on RAJI cells) (UniProt P15391); assay: cell-based or functional assay

Sequence of UniProt P15391 (P15391 20-556 limits assumed): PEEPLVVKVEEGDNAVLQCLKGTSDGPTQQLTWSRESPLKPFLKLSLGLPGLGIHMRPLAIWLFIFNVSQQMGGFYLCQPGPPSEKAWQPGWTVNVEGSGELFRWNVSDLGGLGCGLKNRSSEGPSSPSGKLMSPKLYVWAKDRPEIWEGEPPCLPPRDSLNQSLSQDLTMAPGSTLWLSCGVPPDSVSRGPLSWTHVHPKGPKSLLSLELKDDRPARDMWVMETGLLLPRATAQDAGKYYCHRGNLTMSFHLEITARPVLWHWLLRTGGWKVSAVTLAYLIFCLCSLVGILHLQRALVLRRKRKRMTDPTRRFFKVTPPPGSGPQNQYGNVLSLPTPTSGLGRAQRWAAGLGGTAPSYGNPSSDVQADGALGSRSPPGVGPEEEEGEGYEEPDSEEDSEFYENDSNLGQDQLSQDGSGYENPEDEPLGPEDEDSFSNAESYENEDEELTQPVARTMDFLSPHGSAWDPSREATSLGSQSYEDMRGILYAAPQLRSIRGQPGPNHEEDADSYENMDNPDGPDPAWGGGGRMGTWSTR

## CC[C@H](C(=O)N1CCCC[C@H]1C(=O)O[C@H](CCc1ccc(OC)c(OC)c1)c1cccc(OCCN2CCOCC2)c1)c1cc(OC)c(OC)c(OC)c1 [Shield-1]
[1]; Shield-1 treatment stopped
  CD33 AMR-ShieldTag fusion protein in animals after ligand treatment is stopped: degradation of the CD33 AMR-ShieldTag fusion protein
[2]; Shield-1 treatment stopped
  AMR fusion protein after ligand treatment is stopped, in vitro: degradation of AMR fusion protein

## CC[C@H](C(=O)N1CCCC[C@H]1C(=O)O[C@H](CCc1ccc(OC)c(OC)c1)c1ccccc1OCC(=O)NCCCCCCOc1cccc2c1C(=O)N(C1CCC(=O)NC1=O)C2=O)c1cc(OC)c(OC)c(OC)c1 (some centres unmarked) [dTAG-13]
[1]; 25 mg/kg daily
  AMR-dTAG fusion protein in animals after ligand: degradation of the AMR-dTAG fusion protein
[2]; 100 nM
  AMR fusion protein after ligand treatment in vitro: degradation of AMR fusion protein
[3]; 1 pM to 100 nM
  induction of CD19 expression with increasing concentration: dose dependent induction
[3]; 100 nM for 24-72 h, FMC63-PE staining, before treatment […]
  CD19 expression on AMR-expressing RAJI cells after ligand: 68.98%
RAJI cells
  killing of AMR-expressing RAJI cells by CD19-CAR-T cells or Blinatumomab upon exposure to ligand: sensitized

## FMC63-PE mouse monoclonal antibody
CD19 (on RAJI cells) [4]
  % of control RAJI cells stained for CD19 by FMC63 antibody: 99.2%

## Rituximab: a CD20 antibody
[5]
  infection of NALM6 by the CD19 CAR (SEQ ID NO: 11920): no effect

## Tocilizumab: administered 600 mg i.v. for cytokine release syndrome
[6]; 600 mg i.v. on day 5 after transplantation, patient with CRS after haploidentical stem cell transplant
  blood pressure: stabilization of blood pressure
[6]; after Tocilizumab 600 mg i.v. on day 5 after transplantation
  neurological / mental status: continues to have neurological deterioration

## isotype control mouse IgG (antibody)
CD19 (on RAJI cells) [7]
  % EGFP + RAJI Cells (infection with CD19 CAR lentivirus after incubation with Control IgG-PE): 29.6%
  % EGFP + RAJI Cells (infection with CD19 CAR lentivirus after incubation with control IgG): 43.3%
  % EGFP + RAJI Cells (infection with the negative control MSLN-237-HL mesothelin CAR lentivirus after incubation with Control IgG-PE): 20.4%
